Test results reported in patent US8568736B2, “Polypeptide derivatives of parathyroid hormone (PTH)” (The General Hospital Corporation, priority 1999, dated 2013).
Like-named read-outs stand apart in the source and are kept apart here. No end group written: not given here.

Tests used:
[1] = biological target: T1, human PTH-1 receptor (endogenous, SAOS-2 cells) (Homo sapiens, UniProt Q03431); assay: cAMP response in osteoblastic SAOS-2 cells; assay type: cell-based
T1 construct: the human osteoblastic cell line, SAOS-2, express endogenous PTH-1 receptors; endogenous in cells; host or cells: SAOS-2 human osteoblastic cells
T1 sequence (Q03431 27-593): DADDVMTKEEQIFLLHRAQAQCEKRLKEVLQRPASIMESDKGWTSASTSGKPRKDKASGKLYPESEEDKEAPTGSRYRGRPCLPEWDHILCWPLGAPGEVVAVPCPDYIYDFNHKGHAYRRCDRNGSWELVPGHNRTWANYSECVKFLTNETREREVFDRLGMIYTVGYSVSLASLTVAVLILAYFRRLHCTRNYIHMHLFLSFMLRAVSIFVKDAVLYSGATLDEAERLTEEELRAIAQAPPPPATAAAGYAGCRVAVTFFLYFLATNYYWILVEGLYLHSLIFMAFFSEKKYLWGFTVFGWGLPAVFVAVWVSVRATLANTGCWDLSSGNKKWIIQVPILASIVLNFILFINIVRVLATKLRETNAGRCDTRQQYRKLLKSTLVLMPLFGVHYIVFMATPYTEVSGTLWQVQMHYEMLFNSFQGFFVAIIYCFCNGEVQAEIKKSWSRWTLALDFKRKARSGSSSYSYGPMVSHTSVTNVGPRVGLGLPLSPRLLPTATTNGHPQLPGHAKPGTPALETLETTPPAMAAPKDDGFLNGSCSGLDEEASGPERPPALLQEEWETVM
Protocol: The rat osteoblastic cell line ROS 17/2.8 (Majeska, R. J., et al, Endocrinology 107:1494-1503 (1980)) expresses endogenous PTH-1 receptors at levels of 80,000 per cell and the human osteoblastic cell line, SAOS-2, express endogenous PTH-1 receptors at levels of ˜30,000 per cell.
(§1) Stimulation of cells with peptide analogs was performed in 24-well plates. Cells were rinsed with 0.5 mL of binding buffer and treated with 200 μL of cAMP assay buffer (Dulbecco's modified Eagle's medium containing 2 mM 3-isobutyl-1-methylxanthine, 1 mg/mL bovine serum albumin, 35 mM Hepes-NaOH, pH 7.4) and 100 μL of binding buffer containing varying amounts of peptide analog (final volume=300 μL). The medium was removed after incubation for 1 h at room temperature, and the cells were frozen (−80° C.), lysed with 0.5 mL 50 mM HCl, and refrozen (−80° C.). The cAMP content of the diluted lysate was determined by radioimmunoassay. Where possible, cAMP EC50 and Maximum response values were determined using nonlinear regression (see below).
All calculations were performed using Microsoft Excel. Nonlinear regression analysis of cAMP stimulation data was performed using parameters, defined as the Minimum, Maximum, Emax, midpoint (EC50), and slope of the response curve. The predicted response (yp) for a given dose (x) of peptide was calculated using the following equation: yp=Min+[(Max−Min)/(1+(EC50/x)^slope)]. The initial parameter values were estimated from the primary data, and the Excel “Solver function” was then used to vary the four parameters in order to minimize the differences between the predicted and actual responses (least-squares method) (Bowen, W., & Jerman, J., Trends in Pharmacol. Sci. 16:413-417 (1995)). The statistical significance between two data sets was determined using a one-tailed Student's t-test, assuming unequal variances for the two sets.

PTH-1 receptor = biological target: T2, PTH-1 receptor (Homo sapiens, UniProt Q03431); assay: cAMP stimulation in HKRK-B7 cells (LLC-PK1 stably transfected with hPTH-1 receptor); assay type: cell-based; parameters: expressed in transfected cells; host or cells: LLC-PK1 porcine kidney cells, clone HKRK-B7; details: for Emax: Emax constrained to ±1 SD of rPTH(1-34) response at 100 nM; for fold more potent than native PTH(1-14): LLC-PK1 cells stably expressing hPTH-1 receptor
T2 sequence (Q03431 27-593): T1 sequence (Q03431 27-593)
Source text: Stably transfected derivatives of the porcine kidney cell line LLC-PK1, HKRK-B7 (Takasu, H., et al., J. Bone Miner. Res. 14:11-20 (1999)) and hPR2-20, express the human PTH-1 and human PTH-2 receptors respectively. The HKRK-B7 LLC-PK1 cell line expresses the hPTH-1 receptor at ˜1×10^6 receptors/cell (Takasu, H., et al., J. Bone Miner. Res. 14:11-20 (1999)), and the hPR2-22 LLC-PK1 cell line expresses the hPTH-2 receptor at ˜0.8×10^6 receptors/cell (provided by H. Takasu and F. R. Bringhurst, Endocrine Unit, Massachusetts General Hospital).
as §1
Intracellular cAMP accumulation may be measured as described by Abou-Samra et al., J. Biol. Chem. 262:1129, 1986) or other methods known to those of skill in the art. Intracellular cAMP is extracted by thawing the cells in 1 ml of 50 mM HCl and analyzed by a specific radioimmunoassay using an anti-cAMP antibody (e.g., Sigma, St. Louis, Mo.). A cAMP analog (2′-O-monosuccinyl-adenosine 3′:5′-cyclic monophosphate tyrosyl methyl ester, obtained from Sigma) which is used as a tracer for cAMP is iodinated by the chloramine T method. Free iodine is removed by adsorbing the iodinated cAMP analog onto a C18 Sep-pak cartridge (Waters, Milford, Mass.). After washing with dH2O, the iodinated cAMP analog is eluted from the Sep-pak Cartridge with 40% acetonitrille (ACN) and 0.1% trifluoroacetic acid (TFA). The iodinated cAMP analog is lyophilized, reconstituted in 1 ml 0.1% TFA, and injected into a C18 reverse phase HPLC column (Waters). The column is equilibrated with 10% ACN in 0.1% TFA, and eluted with gradient of 10-30% ACN in 0.1% TFA. This allows separation of the mono-iodinated cAMP analog from the non-iodinated cAMP analog. The tracer is stable for up to 4 months when stored at −20° C. The standard used for the assay, adenosine 3′:5′-cyclic monophosphate, is purchased from Sigma. Samples (1-10 µl of HCl extracts) or standards (0.04-100 fmol/tube) are diluted in 50 mM Na-acetate (pH 5.5), and acetylated with 10 μl of mixture of triethylamine and acetic anhydride (2:1 vol:vol). After acetylation, cAMP antiserum (100 μl) is added from a stock solution (1:4000) made in PBS (pH 7.4), 5 mM EDTA and 1% normal rabbit serum. The tracer is diluted in PBS (pH 7.4) with 0.1% BSA, and added (20,000 cpm/tube). The assay is incubated at 4° C. overnight. The bound tracer is precipitated by adding 100 μl of goat anti-rabbit antiserum (1:20 in PBS) and 1 ml of 7% polyethyleneglycol (MW 5000-6000), centrifuging at 2000 rpm for 30 min. at 4° C. The supernatant is removed and the bound radioactivity is counted in a gamma-counter (Micromedic). To compute the cAMP data, logit calculations were performed in Excel spreadsheets. Typically, the assay sensitivity is 0.1 fmol/tube, and the standard concentration that displaces 50% of tracer is 5 fmol/tube.
All calculations were performed using Microsoft Excel. Nonlinear regression analysis of cAMP stimulation data was performed using parameters, defined as the Minimum, Maximum, Emax, midpoint (EC50), and slope of the response curve. The predicted response (yp) for a given dose (x) of peptide was calculated using the following equation: yp=Min+[(Max−Min)/(1+(EC50/x)^slope)]. […]

| Compound | EC50 [1] | Emax ([1]; SAOS-2 cells) | EC50 Log M (PTH-1 receptor; HKRK-B7 cells (hPTH-1 Receptor), cAMP, mean ± SEM) | Emax (PTH-1 receptor; HKRK-B7 cells) | EC50 ([1]; SAOS-2 cells, cAMP, read-out: EC50 (converted)) | cAMP signaling activity (in words) (PTH-1 receptor; HKRK-B7 cells, dose-response) | fold more potent than native PTH(1-14) (PTH-1 receptor; cAMP) | fold more potent than native PTH(1-14) (PTH-1 receptor; cAMP, listed as [A^3, A^10, R^11, A^12]rPTH(1-14)amide) | fold more potent than the two controls, rPTH(1-34) and hPTH(1-34) (PTH-1 receptor; HKRK-B7 cells, cAMP) | EC50 Log M ([1]; SAOS-2 cells, cAMP) |
| --- | --- | --- | --- | --- | --- | --- | --- | --- | --- | --- |
| CCCC[C@H](NC(=O)[C@H](CCCNC(=N)N)NC(=O)[C@H](CCC(=O)O)NC(=O)[C@@H](NC(=O)[C@H](CO)NC(=O)[C@H](C)NC(=O)[C@H](CC(C)C)NC(=O)[C@H](Cc1c[nH]cn1)NC(=O)[C@H](CCCCN)NC(=O)CNC(=O)[C@H](CC(C)C)NC(=O)[C@H](CC(N)=O)NC(=O)[C@H](Cc1c[nH]cn1)NC(=O)[C@H](CCCC)NC(=O)[C@H](CC(C)C)NC(=O)[C@H](CCC(N)=O)NC(=O)[C@@H](NC(=O)[C@H](CCC(=O)O)NC(=O)[C@H](CO)NC(=O)[C@@H](NC(=O)[C@H](C)N)C(C)C)[C@@H](C)CC)C(C)C)C(=O)N[C@@H](CCC(N)=O)C(=O)N[C@@H](Cc1c[nH]c2ccccc12)C(=O)N[C@@H](CC(C)C)C(=O)N[C@@H](CCCNC(=N)N)C(=O)N[C@@H](CCCCN)C(=O)N[C@@H](CCCCN)C(=O)N[C@@H](CC(C)C)C(=O)N[C@@H](CCC(N)=O)C(=O)N[C@@H](CC(=O)O)C(=O)N[C@H](C(=O)N[C@@H](Cc1c[nH]cn1)C(=O)N[C@@H](CC(N)=O)C(=O)N[C@@H](Cc1ccc(O)cc1)C(N)=O)C(C)C [[Nle8, 21, Y34]rPTH(1-34), [Nle^8,21,Tyr^34]-rPTH(1-34)NH2, reference compound] | 0.178 nM | 272 ± 33 picomole/well | −8.6 ± 0.1 Log M | 293 ± 29 picomole/well | – | – | – | – | – | – |
| AVAEIQLMHAR-NH2 [compound 6, AlaValAlaGluIleGlnLeuMetHisAlaArg-amide] | – | 235 ± 7 picomole/well | – | 248 ± 13 picomole/well | 75900 nM | signaling activity was readily observed | – | – | – | – |
| AVAEIQLMHARAKH-NH2 [Peptide #1, AlaValAlaGluIleGlnLeuMetHisAlaArgAlaLysHis-amide] | – | 331 picomole/well | – | 264 ± 16 picomole/well | – | – | 160 fold | 100 fold | – | – |
| AVAEIQLMHARAKHLNSMERVEWLRKKLQDVHNY-NH2 [Peptide #7] | 0.112 nM | 272 ± 33 picomole/well | – | 244 picomole/well | – | – | – | – | about 2 fold | – |
| AVSEIQLMHNLGKH-NH2 [native rPTH(1-14), AVSEIQLMHNLGKH, reference compound] | – | – | – | 299 ± 27 picomole/well | – | – | – | – | – | barely active |
